The term EC50 denotes the concentration giving half of the maximal effect. The term IC50 denotes the midpoint of a concentration-inhibition curve. As a reminder, the AC50 is the midpoint of the concentration-response curve, whichever way the signal moves. The Ki is a dissociation constant, usually derived from enzyme kinetics or from competition with a known ligand. As a reminder, the pKi is the Ki on a negative log10 scale, so that one unit is a factor of ten.

This note sets out measurements from ChEMBL document CHEMBL1201862, “PubChem BioAssay data set” (2004).

Experiment [1] in a line: inhibitors of intracellular T. cruzi replication, confirmation, NIH3T3 host cells, beta-gal luminescence (AID 2044).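 Further: intracellular parasites grown in NIH/3T3 mouse fibroblasts as host cells; luminescent beta-galactosidase reporter signal from transgenic T. cruzi replicating inside host cells; inhibitors lower the luminescence signal.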 The experiment is classed as functional, cell-based.
Experiment [2] addresses Mothers against decapentaplegic homolog 3 (Homo sapiens, UniProt P84022). The experiment can be described thus: SMAD3 transcription factor inhibitors, dose response (AID 715). The class given is functional.
Experiment [3] in a line: microbe, parasite or virus in culture. The experiment is classed as functional. Conditions: Mycobacterium tuberculosis.
Experiment [4] can be described thus: Artemis endonuclease inhibitor potency, dose response, biochemical, fluorescence intensity (AID 720701).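 Further: Artemis endonuclease enzyme.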 The experiment is classed as functional.
The next experiment concerns HEK293. The experiment can be described thus: optical interference in Abeta FP readout, dose response, artefact control for IDE activator project, biochemical, fluorescence polarization (AID 588442). The experiment is classed as functional, cell-based. The settings on record: Homo sapiens. Background: Polarisation of emitted light reports the rotation of a fluorescent probe.

Experiment [5] can be described thus: HepG2 cell cytotoxicity, dose response, cytotoxicity control for Shn3 inhibitor project, CellTiter-Glo, cherry-picked (AID 624134). The experiment is classed as functional, cell-based. In general terms: Cellular ATP, detected with luciferase, serves as a proxy for viable cell number.
The target in experiment [6] is T1, Ubiquitin-conjugating enzyme E2 N (Homo sapiens, UniProt P61088).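 Further: Dose-response confirmation in a TR-FRET assay detecting UBC13-driven polyubiquitin chain formation, inhibition measured.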
T1 sequence (P61088 whole entry): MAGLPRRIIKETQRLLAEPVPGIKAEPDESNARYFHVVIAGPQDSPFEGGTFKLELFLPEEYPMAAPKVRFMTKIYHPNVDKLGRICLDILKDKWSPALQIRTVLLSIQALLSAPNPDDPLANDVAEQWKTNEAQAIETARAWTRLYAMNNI
The experiment is classed as functional.

Experiment [7] concerns the target T2, DNA repair protein RAD52 homolog (Homo sapiens, UniProt P43351).
T2 sequence (P43351 whole entry): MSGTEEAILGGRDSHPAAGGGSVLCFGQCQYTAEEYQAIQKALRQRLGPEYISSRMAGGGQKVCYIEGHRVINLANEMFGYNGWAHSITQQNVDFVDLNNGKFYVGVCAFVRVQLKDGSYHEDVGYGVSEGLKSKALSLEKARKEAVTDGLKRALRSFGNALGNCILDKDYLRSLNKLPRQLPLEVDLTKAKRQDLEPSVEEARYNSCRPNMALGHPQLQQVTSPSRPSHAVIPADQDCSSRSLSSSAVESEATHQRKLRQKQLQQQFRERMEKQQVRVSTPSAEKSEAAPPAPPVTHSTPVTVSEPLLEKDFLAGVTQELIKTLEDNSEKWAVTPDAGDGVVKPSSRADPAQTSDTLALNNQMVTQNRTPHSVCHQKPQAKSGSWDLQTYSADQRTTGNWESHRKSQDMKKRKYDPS
The class given is functional, biochemical.

Experiment [8] addresses Cell division cycle 7-related protein kinase (Homo sapiens, UniProt O00311). The class given is functional.
Experiment [9] concerns the target High affinity nerve growth factor receptor (Homo sapiens, UniProt P04629). The experiment is classed as functional.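 Further: NTRK1 tested as one member of a kinome-wide profiling panel.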
Experiment [10] addresses Serine/threonine-protein kinase 17A (Homo sapiens, UniProt Q9UEE5). The class given is functional.
Experiment [11] deals with Cyclin-dependent kinase 5 (Homo sapiens, UniProt Q00535). The class given is functional.
Chain of Cyclin-dependent kinase 5 (Q00535 whole entry): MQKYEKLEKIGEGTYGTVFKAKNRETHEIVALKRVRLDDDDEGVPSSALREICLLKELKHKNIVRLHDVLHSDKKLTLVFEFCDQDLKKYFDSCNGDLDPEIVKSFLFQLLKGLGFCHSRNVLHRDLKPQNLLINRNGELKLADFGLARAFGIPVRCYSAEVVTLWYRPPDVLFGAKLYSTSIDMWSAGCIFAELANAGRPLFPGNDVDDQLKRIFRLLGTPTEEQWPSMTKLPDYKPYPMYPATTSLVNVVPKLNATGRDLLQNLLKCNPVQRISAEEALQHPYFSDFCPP
The target of experiment [12] is Hepatocyte growth factor receptor (Homo sapiens, UniProt P08581). The class given is functional.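 Further: kinase panel profiling across the kinome, with MET as the panel member.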
Chain of Hepatocyte growth factor receptor (P08581 whole entry): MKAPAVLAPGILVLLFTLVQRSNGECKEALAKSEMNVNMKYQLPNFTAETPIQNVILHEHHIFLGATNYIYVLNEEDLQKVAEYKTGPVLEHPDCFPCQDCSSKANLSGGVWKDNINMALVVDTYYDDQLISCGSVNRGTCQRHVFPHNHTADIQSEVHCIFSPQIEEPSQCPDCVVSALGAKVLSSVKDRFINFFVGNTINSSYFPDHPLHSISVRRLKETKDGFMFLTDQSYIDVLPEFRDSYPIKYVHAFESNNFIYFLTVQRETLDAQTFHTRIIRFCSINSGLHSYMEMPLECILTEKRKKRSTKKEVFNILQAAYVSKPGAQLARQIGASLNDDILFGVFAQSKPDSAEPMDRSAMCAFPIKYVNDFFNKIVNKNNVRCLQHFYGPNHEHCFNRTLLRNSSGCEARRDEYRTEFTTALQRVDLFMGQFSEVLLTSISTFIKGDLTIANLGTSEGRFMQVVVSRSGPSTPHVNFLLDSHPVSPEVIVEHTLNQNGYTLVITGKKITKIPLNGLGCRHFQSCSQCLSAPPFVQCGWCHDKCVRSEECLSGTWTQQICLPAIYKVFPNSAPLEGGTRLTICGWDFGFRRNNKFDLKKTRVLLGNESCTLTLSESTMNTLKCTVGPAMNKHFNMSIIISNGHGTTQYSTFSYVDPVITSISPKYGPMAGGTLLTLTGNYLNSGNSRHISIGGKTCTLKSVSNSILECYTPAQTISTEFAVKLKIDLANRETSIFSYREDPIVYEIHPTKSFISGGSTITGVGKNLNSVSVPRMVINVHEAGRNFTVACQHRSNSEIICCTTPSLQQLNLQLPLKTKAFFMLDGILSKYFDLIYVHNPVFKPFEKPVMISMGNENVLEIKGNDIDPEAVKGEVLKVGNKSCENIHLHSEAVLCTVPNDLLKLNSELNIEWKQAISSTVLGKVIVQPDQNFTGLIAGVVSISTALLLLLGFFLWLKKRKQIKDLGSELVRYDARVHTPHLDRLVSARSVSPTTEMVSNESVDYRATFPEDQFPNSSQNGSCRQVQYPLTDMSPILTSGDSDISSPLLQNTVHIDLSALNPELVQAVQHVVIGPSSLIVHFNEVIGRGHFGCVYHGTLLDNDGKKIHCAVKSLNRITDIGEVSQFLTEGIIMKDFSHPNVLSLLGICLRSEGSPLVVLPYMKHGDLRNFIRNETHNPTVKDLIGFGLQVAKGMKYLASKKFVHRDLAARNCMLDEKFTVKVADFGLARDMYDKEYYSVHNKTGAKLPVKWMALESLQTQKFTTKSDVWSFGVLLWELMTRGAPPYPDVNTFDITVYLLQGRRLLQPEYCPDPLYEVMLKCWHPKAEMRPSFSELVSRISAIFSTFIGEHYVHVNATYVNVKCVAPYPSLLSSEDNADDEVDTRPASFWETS
In experiment [13] the target is Serine/threonine-protein kinase Nek2 (Homo sapiens, UniProt P51955). The experiment is classed as functional.
Chain of Serine/threonine-protein kinase Nek2 (P51955 whole entry): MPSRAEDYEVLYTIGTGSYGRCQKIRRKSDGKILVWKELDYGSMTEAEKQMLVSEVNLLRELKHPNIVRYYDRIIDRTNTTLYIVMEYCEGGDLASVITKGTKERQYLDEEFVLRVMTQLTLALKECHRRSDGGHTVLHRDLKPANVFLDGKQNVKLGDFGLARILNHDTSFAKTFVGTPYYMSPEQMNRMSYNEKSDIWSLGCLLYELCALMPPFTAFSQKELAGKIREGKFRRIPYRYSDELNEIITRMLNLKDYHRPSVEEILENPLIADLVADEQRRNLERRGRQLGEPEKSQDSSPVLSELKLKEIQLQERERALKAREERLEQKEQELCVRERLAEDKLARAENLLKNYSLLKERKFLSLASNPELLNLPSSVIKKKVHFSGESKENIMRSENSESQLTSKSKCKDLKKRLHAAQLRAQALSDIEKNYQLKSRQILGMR
For experiment [14], the target named is T3, Sentrin-specific protease 7 (Homo sapiens, UniProt Q9BQF6).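 Further: Luminescence-based dose-response confirmation of ultra-high-throughput screening hits, measuring inhibition of SENP7.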
T3 sequence (Q9BQF6 whole entry): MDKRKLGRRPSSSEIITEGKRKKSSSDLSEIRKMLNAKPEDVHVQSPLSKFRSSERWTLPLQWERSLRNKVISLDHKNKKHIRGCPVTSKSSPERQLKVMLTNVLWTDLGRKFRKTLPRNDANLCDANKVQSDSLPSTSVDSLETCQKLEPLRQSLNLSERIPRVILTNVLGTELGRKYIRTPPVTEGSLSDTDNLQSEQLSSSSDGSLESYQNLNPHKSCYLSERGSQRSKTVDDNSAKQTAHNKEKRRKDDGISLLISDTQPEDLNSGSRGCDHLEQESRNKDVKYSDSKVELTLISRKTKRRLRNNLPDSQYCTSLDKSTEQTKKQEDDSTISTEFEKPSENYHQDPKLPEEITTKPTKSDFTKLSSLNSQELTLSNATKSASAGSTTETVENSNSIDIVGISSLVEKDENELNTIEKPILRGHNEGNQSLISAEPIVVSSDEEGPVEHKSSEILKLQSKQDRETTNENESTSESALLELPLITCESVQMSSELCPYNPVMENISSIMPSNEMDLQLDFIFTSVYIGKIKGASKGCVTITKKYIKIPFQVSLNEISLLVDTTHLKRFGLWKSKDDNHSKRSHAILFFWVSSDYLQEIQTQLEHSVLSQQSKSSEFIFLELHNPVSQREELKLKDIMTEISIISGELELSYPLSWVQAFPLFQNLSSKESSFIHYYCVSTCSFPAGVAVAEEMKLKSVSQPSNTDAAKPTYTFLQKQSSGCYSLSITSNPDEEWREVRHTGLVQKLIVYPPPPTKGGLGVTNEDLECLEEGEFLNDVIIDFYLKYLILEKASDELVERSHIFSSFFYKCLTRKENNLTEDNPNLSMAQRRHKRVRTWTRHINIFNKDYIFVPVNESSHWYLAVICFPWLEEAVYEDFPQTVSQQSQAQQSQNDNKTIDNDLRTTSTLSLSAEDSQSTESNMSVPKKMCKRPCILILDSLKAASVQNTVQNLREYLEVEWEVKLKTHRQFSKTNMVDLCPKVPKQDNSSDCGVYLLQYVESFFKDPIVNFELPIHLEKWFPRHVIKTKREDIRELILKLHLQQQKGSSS
The class given is functional.

Another experiment has as its target T4, Caspase-3 (Homo sapiens, UniProt P42574).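 Further: Dose-response selectivity test against caspase-3 for candidate inhibitors of sentrin-specific proteases (SENPs).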
T4 sequence (P42574 whole entry): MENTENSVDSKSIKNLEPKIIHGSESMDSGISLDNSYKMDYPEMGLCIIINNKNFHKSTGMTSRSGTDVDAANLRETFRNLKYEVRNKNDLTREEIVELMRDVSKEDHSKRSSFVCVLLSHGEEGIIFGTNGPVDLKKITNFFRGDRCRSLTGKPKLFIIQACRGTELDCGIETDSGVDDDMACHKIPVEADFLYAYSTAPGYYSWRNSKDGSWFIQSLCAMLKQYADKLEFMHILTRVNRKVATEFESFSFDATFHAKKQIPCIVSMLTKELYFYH
The experiment is classed as functional.

Each structure is given as a SMILES string. Activity calls are given as the source filed them.

Chain of Serine/threonine-protein kinase 17A (Q9UEE5 whole entry): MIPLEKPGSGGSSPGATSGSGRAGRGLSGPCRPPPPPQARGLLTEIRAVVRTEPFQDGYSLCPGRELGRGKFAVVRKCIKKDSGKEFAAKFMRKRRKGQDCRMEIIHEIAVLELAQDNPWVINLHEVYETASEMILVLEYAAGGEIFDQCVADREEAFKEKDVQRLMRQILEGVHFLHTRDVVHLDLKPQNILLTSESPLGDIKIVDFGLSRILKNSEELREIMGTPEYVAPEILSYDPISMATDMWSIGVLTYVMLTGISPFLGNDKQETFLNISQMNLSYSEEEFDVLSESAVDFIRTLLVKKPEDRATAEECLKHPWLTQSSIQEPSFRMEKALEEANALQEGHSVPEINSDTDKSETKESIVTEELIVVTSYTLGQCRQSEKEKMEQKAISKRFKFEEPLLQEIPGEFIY
Chain of Cell division cycle 7-related protein kinase (O00311 whole entry): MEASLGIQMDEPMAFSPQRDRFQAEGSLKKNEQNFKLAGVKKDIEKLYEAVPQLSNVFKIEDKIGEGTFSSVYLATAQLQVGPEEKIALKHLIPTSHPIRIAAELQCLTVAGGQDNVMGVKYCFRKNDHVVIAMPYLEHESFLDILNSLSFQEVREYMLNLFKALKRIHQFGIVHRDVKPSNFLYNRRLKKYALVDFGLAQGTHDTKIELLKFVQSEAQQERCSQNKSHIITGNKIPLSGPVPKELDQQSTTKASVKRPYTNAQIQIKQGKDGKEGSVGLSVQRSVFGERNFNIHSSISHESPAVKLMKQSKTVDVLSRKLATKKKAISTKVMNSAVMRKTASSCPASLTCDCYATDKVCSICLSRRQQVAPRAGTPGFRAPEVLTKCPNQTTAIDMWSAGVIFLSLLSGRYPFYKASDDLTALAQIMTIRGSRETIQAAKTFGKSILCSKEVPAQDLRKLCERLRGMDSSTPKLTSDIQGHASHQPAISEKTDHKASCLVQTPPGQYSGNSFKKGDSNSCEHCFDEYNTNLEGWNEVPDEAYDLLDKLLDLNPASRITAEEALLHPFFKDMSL
Chain of High affinity nerve growth factor receptor (P04629 whole entry): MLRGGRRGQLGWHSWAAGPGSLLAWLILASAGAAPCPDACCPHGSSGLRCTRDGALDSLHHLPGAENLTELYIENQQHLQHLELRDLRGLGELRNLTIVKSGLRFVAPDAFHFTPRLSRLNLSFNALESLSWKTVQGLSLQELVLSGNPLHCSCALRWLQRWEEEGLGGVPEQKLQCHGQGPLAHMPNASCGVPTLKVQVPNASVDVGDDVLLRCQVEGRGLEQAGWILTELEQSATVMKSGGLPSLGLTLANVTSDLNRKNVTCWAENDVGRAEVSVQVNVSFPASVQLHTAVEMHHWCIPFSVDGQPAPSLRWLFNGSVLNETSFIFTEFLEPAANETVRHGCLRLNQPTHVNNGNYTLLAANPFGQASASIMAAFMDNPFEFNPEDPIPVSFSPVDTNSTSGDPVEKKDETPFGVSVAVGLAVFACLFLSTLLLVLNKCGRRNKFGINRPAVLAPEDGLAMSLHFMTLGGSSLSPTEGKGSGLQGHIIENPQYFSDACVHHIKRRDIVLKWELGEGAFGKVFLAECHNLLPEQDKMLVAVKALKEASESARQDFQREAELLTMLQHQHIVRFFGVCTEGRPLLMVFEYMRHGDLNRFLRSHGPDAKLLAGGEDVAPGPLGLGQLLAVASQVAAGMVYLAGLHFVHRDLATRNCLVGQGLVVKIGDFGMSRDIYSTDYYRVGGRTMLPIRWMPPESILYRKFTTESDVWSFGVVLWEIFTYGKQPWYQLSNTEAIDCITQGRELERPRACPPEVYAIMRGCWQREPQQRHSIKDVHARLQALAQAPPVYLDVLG
Chain of Mothers against decapentaplegic homolog 3 (P84022 whole entry): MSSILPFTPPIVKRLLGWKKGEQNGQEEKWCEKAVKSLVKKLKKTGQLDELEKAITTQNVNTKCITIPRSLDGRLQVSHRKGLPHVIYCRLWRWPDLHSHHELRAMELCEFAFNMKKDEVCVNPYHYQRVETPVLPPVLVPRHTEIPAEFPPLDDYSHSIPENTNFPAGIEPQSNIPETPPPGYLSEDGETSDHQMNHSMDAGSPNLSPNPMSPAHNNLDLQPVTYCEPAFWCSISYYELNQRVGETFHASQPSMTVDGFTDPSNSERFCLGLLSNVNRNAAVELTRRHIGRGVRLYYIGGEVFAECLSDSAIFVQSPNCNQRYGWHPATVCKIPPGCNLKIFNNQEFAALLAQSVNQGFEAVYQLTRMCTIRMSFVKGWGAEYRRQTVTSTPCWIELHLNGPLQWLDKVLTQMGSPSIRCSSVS

As for `CC(C)CC(=O)NC(c1cccs1)c1ccc2cccnc2c1O` (stereo not drawn), the concentration giving a half-maximal response (EC50) in experiment [1] is 0.489 µM (active).

Turning to `CCOC(=O)c1ccc(NC2=CC(=O)C(=O)c3ccccc32)cc1`, the values for the IC50 in experiment [2] and in [4] were 2.81 µM (active) and 2.6 µM (active), respectively. Moreover, the CC50 in experiment [3] was 21.1 µM (active).

`OC(CNCCC1C=Nc2ccccc21)Cn1c2ccc(Cl)cc2c2cc(Cl)ccc21` (stereo not drawn): the EC50 with HEK293 was > 56 µM (inactive). Further, the AC50 in [5] was 9.39 µM (active).

With `CCCCCCCCCCCCCCCC[N+](C)(C)C`, the IC50 in [6] was > 20 µM (inactive). Further, the AC50 in experiment [7] is 8.73 µM (active).

For `NC1CCC(Nc2nc(Cl)cc(-c3c[nH]c4ncccc34)n2)CC1` (stereo not drawn), the values for the inhibitory constant (Ki) in experiment [8], in experiment [9] and in experiment [10] were 0.000316 µM (active), > 3.16 µM (inactive) and 0.0316 µM (active), respectively. The negative-log Ki (pKi) in experiment [8] turned out to be 9.5; in [10] it was 7.5.

On to `O=C(O)C1CN(Cc2ccc(OCc3ccccc3)cc2Cl)C1`, for which the Ki was > 3.16 µM (inactive) in [11], > 2.51 µM (inactive) in experiment [12] and > 3.16 µM (inactive) in [13].

As to `COc1ccc(C(=O)c2nccc3cc(OC)c(OC)cc23)cc1OC`, the half-inhibitory concentration (IC50) was 1.67 µM (active) in experiment [14] and 8.21 µM (active) on Caspase-3.
